Drawing on ChEMBL document CHEMBL2331402, “Salicylaldoxime derivatives as new leads for the development of carbonic anhydrase inhibitors” (Bioorg Med Chem, 2013), this text covers Ki for 9 molecules.

pKi: −log10 of the molar value.

One experiment addresses Carbonic anhydrase 2 (Homo sapiens, UniProt P00918). Description: Inhibition of human recombinant carbonic anhydrase 2 preincubated for 15 mins by CO2 hydration stopped-flow assay.
The target in another experiment is Carbonic anhydrase 12 (Homo sapiens, UniProt O43570). Description: Inhibition of human recombinant carbonic anhydrase 12 preincubated for 15 mins by CO2 hydration stopped-flow assay.
Another experiment deals with Carbonic anhydrase 1 (Homo sapiens, UniProt P00915). The experiment can be described thus: Inhibition of human recombinant carbonic anhydrase 1 preincubated for 15 mins by CO2 hydration stopped-flow assay.
The target in another experiment is Carbonic anhydrase 9 (Homo sapiens, UniProt Q16790). The experiment can be described thus: Inhibition of human recombinant carbonic anhydrase 9 preincubated for 15 mins by CO2 hydration stopped-flow assay.

Carbonic anhydrase 12, sequence (O43570 whole entry): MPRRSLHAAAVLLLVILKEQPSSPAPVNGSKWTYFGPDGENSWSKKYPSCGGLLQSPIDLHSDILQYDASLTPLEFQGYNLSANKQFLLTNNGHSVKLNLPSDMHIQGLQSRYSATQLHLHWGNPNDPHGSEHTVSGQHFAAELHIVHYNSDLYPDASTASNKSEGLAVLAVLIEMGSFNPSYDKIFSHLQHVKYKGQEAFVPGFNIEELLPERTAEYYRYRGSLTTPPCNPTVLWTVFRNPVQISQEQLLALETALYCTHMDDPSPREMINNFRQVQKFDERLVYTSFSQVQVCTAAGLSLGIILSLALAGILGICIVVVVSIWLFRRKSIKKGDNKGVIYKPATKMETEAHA
Carbonic anhydrase 1, sequence (P00915 whole entry): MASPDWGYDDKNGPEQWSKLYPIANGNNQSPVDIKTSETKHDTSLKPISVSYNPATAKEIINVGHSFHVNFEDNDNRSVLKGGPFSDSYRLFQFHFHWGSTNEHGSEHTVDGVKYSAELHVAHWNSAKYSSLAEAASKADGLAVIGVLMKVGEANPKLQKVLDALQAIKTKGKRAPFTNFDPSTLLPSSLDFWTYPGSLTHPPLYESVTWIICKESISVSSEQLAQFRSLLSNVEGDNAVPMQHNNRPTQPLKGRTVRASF

As to `O/N=C/c1c(O)ccc(-c2ccc(O)cc2)c1Cl`, the pKi is 5.64 at Carbonic anhydrase 2, 5.37 at Carbonic anhydrase 12 and 5.40 on Carbonic anhydrase 1.

In the case of `O/N=C/c1c(O)ccc(-c2ccc(O)c(F)c2)c1Cl`, the pKi on Carbonic anhydrase 2 was 5.43; at Carbonic anhydrase 9, 5.15; at Carbonic anhydrase 12 it was 5.26; on Carbonic anhydrase 1, 5.14.

Take `Oc1cc(F)cc(F)c1`: the pKi on Carbonic anhydrase 2 is 3.47; at Carbonic anhydrase 9, 6.03.

As to `N#Cc1c(-c2ccc(O)cc2)ccc(/C=N/O)c1O`, the pKi was 5.23 on Carbonic anhydrase 2, 5.11 at Carbonic anhydrase 9, 5.50 on Carbonic anhydrase 12 and 5.12 on Carbonic anhydrase 1.

Consider `Cc1c(-c2ccc(O)cc2)ccc(/C=N/O)c1O`, for which the negative logarithm of the Ki (pKi) was 5.20 on Carbonic anhydrase 2, 5.19 on Carbonic anhydrase 9, 5.13 at Carbonic anhydrase 12 and 5.10 at Carbonic anhydrase 1.

For the molecule `COc1ccc(-c2ccc(O)c(/C=N/O)c2)cc1F`, the pKi was 5.44 on Carbonic anhydrase 2, 4.99 on Carbonic anhydrase 9, 5.23 on Carbonic anhydrase 12 and 5.16 at Carbonic anhydrase 1.

Consider `O/N=C/c1cc(-c2ccc(O)c(F)c2)ccc1O`, for which the pKi was 5.38 at Carbonic anhydrase 2, 5.16 on Carbonic anhydrase 9, 5.37 at Carbonic anhydrase 12 and 5.04 on Carbonic anhydrase 1.

Consider `C/C(=N\O)c1ccc(-c2ccc(O)cc2)c(Cl)c1O`, for which the negative logarithm of the Ki (pKi) at Carbonic anhydrase 2 is 5.48; on Carbonic anhydrase 9 it was 4.99; on Carbonic anhydrase 12, 5.34; on Carbonic anhydrase 1, 5.16.

As to `C/C(=N\O)c1ccc(-c2ccc(O)c(F)c2)c(Cl)c1O`, the pKi on Carbonic anhydrase 2 was 5.30; on Carbonic anhydrase 9, 5.15; at Carbonic anhydrase 12, 5.32; at Carbonic anhydrase 1, 5.12.

The term pKi denotes −log10 of the Ki, conventionally taken in molar units.
